Columns and labels:
Test in all cases: relative viability (nuclei count vs DMSO), 5 days (fraction); higher = more cells survive
[1] = compound: C#Cc1cccc(Nc2ncnc3cc(OC)c(OCCCCCCC(=O)NO)cc23)c1 [CUDC-101] + CC(C)C[C@H](NC(=O)[C@H](Cc1ccccc1)NC(=O)c1cnccn1)B(O)O [Bortezomib] (partner 0.002 µM)
In short: (§1)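 Lung cancer cell lines were seeded in 1536-well plates and dosed by pin tool the next day, with either a single drug or a fixed anchor-drug dose combined with five library-drug doses (not always all listed) spaced in √10 steps. Five days later, one step fixed the cells and stained their nuclei (final 0.05% Triton X-100, 1% formaldehyde, 1 ug/ml Hoechst), and nuclei were counted on 4× images. Relative viability is the nuclei count in treated wells divided by the count in vehicle wells, and each value is the median of duplicate plates.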

[2] = compound: COc1cc2/c(=N/c3ccc(Br)cc3F)nc[nH]c2cc1OCC1CCN(C)CC1 [Vandetanib] + CC(C)C[C@H](NC(=O)[C@H](Cc1ccccc1)NC(=O)c1cnccn1)B(O)O [Bortezomib] (partner 0.002 µM)
In short: as §1

[3] = compound: COc1cc(N2CCC(N3CCN(C)CC3)CC2)ccc1Nc1ncc(Cl)c(Nc2ccccc2S(=O)(=O)C(C)C)n1 [NVP-TAE684] + O=C(CCCCCCC(=O)Nc1ccccc1)NO [Vorinostat] (partner 1 µM)
In short: as §1

[4] = compound: C1=CC=C2C(=C1)N=C(S2)C(C#N)C3=NC(=NC=C3)NCCC4=CN=CC=C4 + Cc1cc(Nc2cc(N3CCN(C)CC3)nc(Sc3ccc(NC(=O)C4CC4)cc3)n2)n[nH]1 [Tozasertib] (partner 0.1 µM)
In short: as §1

Cell Line	relative viability ([1]; first compound 0.01 µM)	relative viability ([1]; first compound 0.03162 µM)	relative viability ([1]; first compound 0.1 µM)	relative viability ([1]; first compound 0.3162 µM)	relative viability ([1]; first compound 1 µM)	relative viability ([2]; first compound 0.02 µM)	relative viability ([2]; first compound 0.06325 µM)	relative viability ([2]; first compound 0.6325 µM)	relative viability ([2]; first compound 2 µM)	relative viability ([3]; first compound 0.2 µM)	relative viability ([3]; first compound 0.6325 µM)	relative viability ([3]; first compound 2 µM)	relative viability ([4]; first compound 0.005 µM)	relative viability ([4]; first compound 0.01581 µM)	relative viability ([4]; first compound 0.05 µM)	relative viability ([4]; first compound 0.1581 µM)	relative viability ([4]; first compound 0.5 µM)	relative viability ([2]; first compound 0.2 µM)
NCI-H2228	1.11	1.2	1.18	0.97	0.279	0.775	0.942	1.03	0.814	0.467	0.325	0.142	0.251	0.232	0.211	0.187	0.226	
NCI-H2347	0.94	1.05	0.866	0.95	0.805	0.878		0.956	0.969	0.538	0.588	0.44	0.758	0.533	0.574	0.599	0.412	0.896
NCI-H2405	0.969	1.04	0.936	1.02	0.982	0.96	0.9	0.948	1	1.09	0.896	0.518	0.714	0.72	0.672	0.701	0.616	0.985
NCI-H3122	1.06	0.984	1.05	1.01	1.01	0.978	1.03	0.953	1	0.273	0.229	0.103	0.46	0.419	0.433	0.386	0.344	1.05
PC-3 [JPC-3]	0.885	0.927	0.779	0.642	0.629	0.828	0.738	0.734	0.431	0.908	0.72	0.578	0.661	0.927	0.866	0.791	0.706	0.646
PC-14	1.07	0.978	0.89	0.596	0.219	1.03	0.939	0.295	0.258	0.44	0.69	0.144	0.573	0.667	0.554	0.631	0.45	1.05
RERF-LC-KJ	1.2	1.07	1.09	1.14	0.97	1.05	0.961	0.951	0.958	0.589	0.644	0.48	0.535	0.549	0.507	0.472	0.413	1.05
SK-LU-1	1.55	1.03	1.48	0.829	0.976	1.23	1.01	1.39	0.467		0.822	0.487	0.293	0.344	0.33	0.309	0.299	1.21
SW 1573	1.23	1.13	1.13	1.27	0.914	1	0.817	1.01	0.879	0.745	0.636	0.346	0.174	0.179		0.175	0.156	1.16

From the supplement of paper PMC10307832
